Data on 19 molecules can be found in patent US9751869B2, “LXR modulators” (BRISTOL-MYERS SQUIBB COMPANY, priority 2013, dated 2017).

This assay addresses T1, LXRβ (Homo sapiens, UniProt P55055).
T1 construct: Co-transfection expression plasmids, comprising full-length LXRα (pCMX-h LXRα or LXRβ (pCMX-hLXRβ)); expressed in transfected cells; host or cells: CV-1 African green monkey kidney cells, transient transfection with pCMX-hLXRβ
T1 sequence (P55055 1-460): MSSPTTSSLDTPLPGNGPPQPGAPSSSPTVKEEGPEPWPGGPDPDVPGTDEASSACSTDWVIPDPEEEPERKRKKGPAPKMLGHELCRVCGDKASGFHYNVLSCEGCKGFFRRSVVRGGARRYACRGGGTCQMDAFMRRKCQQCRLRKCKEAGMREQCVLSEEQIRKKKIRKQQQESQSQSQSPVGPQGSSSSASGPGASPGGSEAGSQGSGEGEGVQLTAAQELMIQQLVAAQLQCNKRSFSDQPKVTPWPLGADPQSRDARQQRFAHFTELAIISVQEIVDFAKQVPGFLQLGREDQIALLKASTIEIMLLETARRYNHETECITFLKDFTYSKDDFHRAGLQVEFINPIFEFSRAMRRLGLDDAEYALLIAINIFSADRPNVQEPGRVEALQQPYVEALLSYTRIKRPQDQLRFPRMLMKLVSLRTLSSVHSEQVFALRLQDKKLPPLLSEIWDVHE
T1 sequence (P19793 1-462 partner): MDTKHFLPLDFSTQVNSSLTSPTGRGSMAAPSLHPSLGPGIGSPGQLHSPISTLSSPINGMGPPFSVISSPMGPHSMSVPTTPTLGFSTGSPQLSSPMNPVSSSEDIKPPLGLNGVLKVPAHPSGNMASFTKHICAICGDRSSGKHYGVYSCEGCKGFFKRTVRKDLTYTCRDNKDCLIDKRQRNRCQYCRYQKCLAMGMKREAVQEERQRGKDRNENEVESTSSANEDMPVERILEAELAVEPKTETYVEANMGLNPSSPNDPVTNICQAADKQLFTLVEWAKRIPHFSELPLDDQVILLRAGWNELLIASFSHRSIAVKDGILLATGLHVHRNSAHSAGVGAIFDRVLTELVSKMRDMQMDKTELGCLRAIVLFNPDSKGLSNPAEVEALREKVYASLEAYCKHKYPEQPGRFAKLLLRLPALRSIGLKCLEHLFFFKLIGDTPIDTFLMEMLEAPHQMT
The assay is described as follows: LXR/LXRE co-transfection assay (luciferase reporter) in CV-1 cells, LXRβ. Type of assay: cell-based. Particulars: for EC50: CV-1 cells transfected with pCMX-hLXRβ and LXREx1-Tk-Luciferase, 20 hours incubation, read-out: LXRbeta agonism EC50; for Emax: CV-1 cells, relative to maximum response of high control N-(3-((4-fluorophenyl)-(naphthalene-2-sulfonyl)amino)propyl)-2,2-dimethylpropionamide, read-out: LXRbeta % EFFICACY
Put shortly: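 CV-1 cells transiently co-transfected with full-length human LXRβ, LXRE-Tk-luciferase reporter and β-galactosidase control, then exposed to compound (≤0.5% DMSO) for 20 h at 37 °C before luminescence read. EC50 from 10-point, half-log dose curves; efficacy relative to the sulfonamide high control, means of 2–3 experiments.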

For orientation: EC50 means the concentration giving half of the maximal effect.

Regarding `Cc1nc(-c2ccc(OC(F)F)cc2)c(-c2cc(-c3cccc(S(C)(=O)=O)c3)ccc2-n2nc(C(F)(F)F)cc2C)o1` [Example 327, 4-(4-(difluoromethoxy)phenyl)-2-methyl-5-(4-(5-methyl-3-(trifluoromethyl)-1H-pyrazol-1-yl)-3′-(methylsulfonyl)biphenyl-3-yl)oxazole], the half-maximal effective concentration (EC50) stood at 27 nM and the Emax worked out at 78%.
For `Cc1nc(-c2ccc3c(c2)OC(F)(F)O3)c(-c2cc(-c3cccc(S(C)(=O)=O)c3)ccc2-n2nc(C(F)(F)F)cc2C)o1` [Example 328, 4-(2,2-difluorobenzo[d][1,3]dioxol-5-yl)-2-methyl-5-(4-(5-methyl-3-(trifluoromethyl)-1H-pyrazol-1-yl)-3′-(methylsulfonyl)biphenyl-3-yl)oxazole], the EC50 is 24 nM and the Emax turned out to be 112%.
As to `Cc1nc(-c2ccc3c(c2)OC(F)(F)O3)c(-c2cc(-c3cc(F)c(CO)c(S(C)(=O)=O)c3)ccc2-n2nc(C(F)(F)F)cc2C)o1` [Example 329, (3′-(4-(2,2-difluorobenzo[d][1,3]dioxol-5-yl)-2-methyloxazol-5-yl)-3-fluoro-4′-(5-methyl-3-(trifluoromethyl)-1H-pyrazol-1-yl)-5-(methylsulfonyl)biphenyl-4-yl)methanol], the EC50 was determined as 3 nM and the Emax was determined as 92%.
For `Cc1nc(-c2ccc3c(c2)OC(F)(F)O3)c(-c2cc(-c3ccc(CO)c(S(C)(=O)=O)c3)ccc2-n2nc(C(F)(F)F)cc2C)o1` [Example 330, (3′-(4-(2,2-difluorobenzo[d][1,3]dioxol-5-yl)-2-methyloxazol-5-yl)-4′-(5-methyl-3-(trifluoromethyl)-1H-pyrazol-1-yl)-3-(methylsulfonyl)biphenyl-4-yl)methanol], in that order: 5 nM and 64%.
On to `Cc1nc(-c2ccc(OC(F)(F)F)cc2)c(-c2cc(-c3cccc(S(C)(=O)=O)c3)ccc2-n2nc(C(F)(F)F)cc2C)o1` [Example 331, 2-methyl-5-(4-(5-methyl-3-(trifluoromethyl)-1H-pyrazol-1-yl)-3′-(methylsulfonyl)biphenyl-3-yl)-4-(4-(trifluoromethoxy)phenyl)oxazole], for which the half-maximal effective concentration (EC50) turned out to be 61 nM and the Emax came to 82%.
Regarding `Cc1nc(-c2ccc(OC(F)(F)F)cc2)c(-c2cc(-c3cc(F)c(CO)c(S(C)(=O)=O)c3)ccc2-n2nc(C(F)(F)F)cc2C)o1` [Example 332, (3-fluoro-4′-(5-methyl-3-(trifluoromethyl)-1H-pyrazol-1-yl)-3′-(2-methyl-4-(4-(trifluoromethoxy)phenyl)oxazol-5-yl)-5-(methylsulfonyl)biphenyl-4-yl)methanol], the EC50 is 35 nM and the Emax is 70%.
Consider `Cc1nc(-c2ccc(OC(F)(F)F)cc2)c(-c2cc(-c3ccc(CO)c(S(C)(=O)=O)c3)ccc2-n2nc(C(F)(F)F)cc2C)o1` [Example 333, (4′-(5-methyl-3-(trifluoromethyl)-1H-pyrazol-1-yl)-3′-(2-methyl-4-(4-(trifluoromethoxy)phenyl)oxazol-5-yl)-3-(methylsulfonyl)biphenyl-4-yl)methanol], for which the EC50 worked out at 35 nM and the Emax stood at 69%.
With `Cc1nc(-c2ccc(OC(F)(F)F)cc2)c(-c2cc(-c3cc(F)cc(S(C)(=O)=O)c3)ccc2-n2ccc(C(F)(F)F)n2)o1` [Example 334, 5-(3′-fluoro-5′-(methylsulfonyl)-4-(3-(trifluoromethyl)-1H-pyrazol-1-yl)biphenyl-3-yl)-2-methyl-4-(4-(trifluoromethoxy)phenyl)oxazole], the concentration for a half-maximal effect (EC50) amounted to 305 nM and the Emax is 80%.
For `Cc1nc(-c2ccc(OC(F)(F)F)cc2)c(-c2cc(-c3cc(F)c(CO)c(S(C)(=O)=O)c3)ccc2-n2ccc(C(F)(F)F)n2)o1` [Example 335, (3-fluoro-3′-(2-methyl-4-(4-(trifluoromethoxy)phenyl)oxazol-5-yl)-5-(methylsulfonyl)-4′-(3-(trifluoromethyl)-1H-pyrazol-1-yl)biphenyl-4-yl)methanol], the EC50 came out at 29 nM and the Emax turned out to be 71%.
In the case of `Cc1nc(-c2ccc(Cl)cc2)c(-c2cc(-c3cc(F)c(CO)c(S(C)(=O)=O)c3)ccc2-n2ccc(C(F)(F)F)n2)o1` [Example 336, (3′-(4-(4-chlorophenyl)-2-methyloxazol-5-yl)-3-fluoro-5-(methylsulfonyl)-4′-(3-(trifluoromethyl)-1H-pyrazol-1-yl)biphenyl-4-yl)methanol], the EC50 came out at 33 nM and the Emax stood at 75%.
For `Cc1nc(-c2ccc(Cl)cc2Cl)c(-c2cc(-c3cccc(S(C)(=O)=O)c3)ccc2-n2ccc(C(F)(F)F)n2)o1` [Example 337, 4-(2,4-dichlorophenyl)-2-methyl-5-(3′-(methylsulfonyl)-4-(3-(trifluoromethyl)-1H-pyrazol-1-yl)biphenyl-3-yl)oxazole] the same measures were 178 nM and 77%.
For `CS(=O)(=O)c1cccc(-c2ccc(-n3ccc(C(F)(F)F)n3)c(-c3oc(C4CC4)nc3-c3ccc(OC(F)(F)F)cc3)c2)c1` [Example 338, 2-cyclopropyl-5-(3′-(methylsulfonyl)-4-(3-(trifluoromethyl)-1H-pyrazol-1-yl)biphenyl-3-yl)-4-(4-(trifluoromethoxy)phenyl)oxazole], in that order: 186 nM and 58%.
For `CS(=O)(=O)c1cc(-c2ccc(-n3ccc(C(F)(F)F)n3)c(-c3oc(C4CC4)nc3-c3ccc(OC(F)(F)F)cc3)c2)cc(F)c1CO` [Example 339, (3′-(2-cyclopropyl-4-(4-(trifluoromethoxy)phenyl)oxazol-5-yl)-3-fluoro-5-(methylsulfonyl)-4′-(3-(trifluoromethyl)-1H-pyrazol-1-yl)biphenyl-4-yl)methanol] the same measures were 60 nM and 64%.
As to `CC(C)c1nc(-c2ccc(OC(F)(F)F)cc2)c(-c2cc(-c3cccc(S(C)(=O)=O)c3)ccc2-n2ccc(C(F)(F)F)n2)o1` [Example 340, 2-isopropyl-5-(3′-(methylsulfonyl)-4-(3-(trifluoromethyl)-1H-pyrazol-1-yl)biphenyl-3-yl)-4-(4-(trifluoromethoxy)phenyl)oxazole], the half-maximal effective concentration (EC50) was 279 nM and the Emax worked out at 72%.
For `CC(C)c1nc(-c2ccc(OC(F)(F)F)cc2)c(-c2cc(-c3cc(F)c(CO)c(S(C)(=O)=O)c3)ccc2-n2ccc(C(F)(F)F)n2)o1` [Example 341, (3-fluoro-3′-(2-isopropyl-4-(4-(trifluoromethoxy)phenyl)oxazol-5-yl)-5-(methylsulfonyl)-4′-(3-(trifluoromethyl)-1H-pyrazol-1-yl)biphenyl-4-yl)methanol] the same measures were 58 nM and 76%.
As to `Cc1nc(-c2ccc(OC(F)(F)F)cc2)c(-c2cc(-c3cccc(C(C)(C)C#N)c3)ccc2-n2ccc(C(F)(F)F)n2)o1` [Example 342, 2-methyl-2-(3′-(2-methyl-4-(4-(trifluoromethoxy)phenyl)oxazol-5-yl)-4′-(3-(trifluoromethyl)-1H-pyrazol-1-yl)biphenyl-3-yl) propanenitrile], the 50% effective concentration (EC50) worked out at 432 nM and the Emax was 46%.
For `Cc1nc(-c2ccc(OC(F)(F)F)cc2)c(-c2cc(-c3cccc(C(C)(C)C(N)=O)c3)ccc2-n2ccc(C(F)(F)F)n2)o1` [Example 343, 2-methyl-2-(3′-(2-methyl-4-(4-(trifluoromethoxy)phenyl)oxazol-5-yl)-4′-(3-(trifluoromethyl)-1H-pyrazol-1-yl)biphenyl-3-yl) propanamide] the same measures were 149 nM and 74%.
For `Cc1nc(-c2ccc(Cl)cc2)c(-c2cc(-c3cccc(S(C)(=O)=O)c3)ccc2-n2ccc(C(F)(F)F)n2)o1` [Example 344, 4-(4-chlorophenyl)-2-methyl-5-(3′-(methylsulfonyl)-4-(3-(trifluoromethyl)-1H-pyrazol-1-yl)biphenyl-3-yl)oxazole] the same measures were 116 nM and 72%.
For `Cc1nc(-c2ccc(OC(F)(F)F)cc2)c(-c2cc(-c3cccc(S(C)(=O)=O)c3)ccc2-n2nc(C(F)(F)F)cc2Cl)o1` [Example 345, 5-(4-(5-chloro-3-(trifluoromethyl)-1H-pyrazol-1-yl)-3′-(methylsulfonyl)biphenyl-3-yl)-2-methyl-4-(4-(trifluoromethoxy)phenyl)oxazole], in that order: 73 nM and 75%.
